Test results reported in patent US10159685B2, “Vascular calcification” (Cambridge Enterprise Limited, priority 2016, dated 2018).
Where two headings read alike, the source gives them in different places. Marks after values point to notes of the source that are not given here.

Key:
[1] = tested on: bovine vascular smooth muscle cells (bVSMCs); format: cell-based; settings: 7 days; for Cell viability of bVSMCs after seven days (MTT signal, relative to control): mean of three experiments
Protocol: The toxicity of the identified compounds to bovine VSMCs was measured using the MTT assay, which measures the activity of dehydrogenase enzymes of live cells. This assay can pick up both cell death and proliferation.
Bovine VSMCs were seeded in 96 well plates and cultured in M199/20% FCS for 1 day. Then, the cells were incubated with inhibitor concentrations from 0.5 to 100 μM (in M199 medium+5% FBS). The cells were incubated with the inhibitors for 7 days; every 2-3 days the medium −/+inhibitors was exchanged. Then, the MTT assay was performed. The stock vehicle DMSO was tested at corresponding concentrations to the inhibitors at 0.1% DMSO or less.

[2] = tested on: human monocyte-macrophages (HMMs); experiment: MTT toxicity assay, HMMs, seven days (Example 3); format: cell-based; settings: 7 days; for Cell viability by MTT, percent of control: mean of three experiments
Protocol: A similar set of toxicity experiments was performed with human monocyte-macrophages (HMMs).

[3] = tested on: bovine vascular smooth muscle cells (bVSMCs); experiment: Alizarin Red S staining, bVSMC GAD calcification model (Example 4); format: cell-based; settings: GAD-treated bVSMCs, 10 μM, 7 d, versus no inhibitor
Protocol: (§1) For the bVSMCs a GAD medium (10 mM β-glycerophosphate/0.1 mM L-ascorbic acid-2-phosphate/10 nM dexamethasone) model was used to induce mineralization in bVSMCs. Accordingly, cells were seeded in tissue culture plates using M199/20% FCS culture medium and cultured overnight. The next day, cells were treated either with medium only (M199/5% FBS)+/−inhibitors, or with the GAD-medium (10 mM β-glycerophosphate/0.1 mM L-ascorbic acid-2-phosphate/[…] dexamethasone)+/−inhibitors.
Medium+/−inhibitors was exchanged every 2-3 days. Bovine VSMCs were incubated for 7 d prior to assessment.
The Alizarin Red S staining is a visual/histological stain for tissue calcium deposits. Cells are briefly fixed in 4% paraformaldehyde/PIPES buffer pH 7.2 and subsequently stained for 5 min with Alizarin Red S (2% Alizarin Red S/DIW pH 4.2). Excess stain is removed by washing in DIW. Calcium mineral deposits are stained a bright orange red.

[4] = tested on: bovine vascular smooth muscle cells (bVSMCs); experiment: o-Cresolphthalein Ca2+ assay, bVSMC GAD calcification model (Examples 4 and 5); format: cell-based
Protocol: as §1
Medium+/−inhibitors was exchanged every 2-3 days. […]
The o-Cresolphthalein assay is a spectrophotometric method for measuring Ca^2+-concentrations in cell/tissue lysates. Following the calcification experiments, cells are briefly washed to remove medium and 100 […]1 of 0.1 N HCl is added to each well to dissolve any mineral deposits. Then, the Ca^2+-concentration of the samples is measured spectrophotometrically (at 570 nm) in the o-cresolphthalein assay with the help of a CaCl2 standard curve in a concentration range of ˜0.02-270 µg Ca^2+/ml.
The commercial BioRad DC protein assay is based on the Lowry method, aka reaction of proteins with a copper-tartrate complex and subsequent reaction with Folin's reagent. Following the calcification experiment, cells are briefly washed to remove medium and 100 µl of solubilisation solution (0.1 M NaOH/1% SDS/DIW) is added to each well to lyse the cells. The protein concentrations of the lysates are subsequently determined in the BioRad DC assay as per supplier's instructions using BSA (bovine serum albumin) as standard.
The in vitro model is the same as the model used in example 4; bovine vascular smooth muscle cells (bVSMCs) cultured so that they produce extracellular matrix, with the addition of the GAD medium (10 mM β-glycerophosphate/0.1 mM L-ascorbic acid-2-phosphate/10 nM dexamethasone).
As above, cells were treated either with medium only (“no-additions”; NA)+/−inhibitors, or with the GAD-medium+/−inhibitors. The inhibitors used were PJ34 and minocyclin (MC) at 10 μM, 1 μM and 0.1 μM.
The methodology was the same as that described in example 4.

[5] = tested on: bovine vascular smooth muscle cells (bVSMCs); experiment: MTT cell viability assay, bVSMCs with or without GAD medium, 7 or 9 days (Example 5); format: cell-based
Protocol: As above, cells were treated either with medium only (“no-additions”; NA)+/−inhibitors, or with the GAD-medium+/−inhibitors. […] Additionally, an MTT assay was performed as a measure of cell viability/proliferation. Bovine VSMCs were seeded in 96 well plates and cultured in M199/20% FCS for 1 day. Then, the cells were incubated with inhibitor concentrations of 10 μM, 1 μM and 0.1 μM (in M199 medium+5% FBS). […] Then, the MTT assay was performed.

[6] = tested on: human vascular smooth muscle cells (hVSMCs); experiment: o-Cresolphthalein Ca2+ assay, hVSMC Ca/P calcification model (Examples 7-9); format: cell-based; settings: hVSMCs, 6 days; PJ34 10 μM; minocycline and cilostazol 0.5, 1 and 2 μM
Protocol: (§2) Primary hVSMCs were cultured in M199 media containing FBS (M199/5% FBS). They were plated at a known cell density, allowed to grow for 24 hours and then treated with control (DMSO only) or calcification media (DMSO containing 2.7 mM Calcium+2.5 mM phosphate)+/−inhibitors. After 6 days, calcification was assessed using the o-Cresolphthalein assay for quantification of Ca^2+ deposition and a BioRad protein assay for protein content.
Medium+/−inhibitors was exchanged every 2-3 days.
as §2, with “8” for “6”, “using” for “using the”
All of the compounds tested were used at a concentration of 3 μM. Medium+/−inhibitors was exchanged every 2-3 days.
as §2, with “phosphate)+/−compounds.” for “phosphate)+/−inhibitors.”, “8” for “6”, “using” for “using the”
These concentrations were chosen to mimic the systemic concentrations of these drugs following patient dosing according to the dose schedule in the prescribing information for each drug. Medium+/−inhibitors was exchanged every 2-3 days.

[7] = tested on: PARP produced by a mammalian cell; settings: have been shown; cited from earlier work

CN(C)CC(=O)Nc1ccc2[nH]c(=O)c3ccccc3c2c1.Cl [PJ34, N-(6-Oxo-5,6-dihydrophenanthridin-2-yl)-(N,N-dimethylamino)acetamide hydrochloride]
Cell viability of bVSMCs after seven days (MTT signal, relative to control) ([1]; 0.5 uM): 102.59
Cell viability of bVSMCs after seven days (MTT signal, relative to control) ([1]; 1 uM): 98.89
Cell viability of bVSMCs after seven days (MTT signal, relative to control) ([1]; 2 uM): 92.33
Cell viability of bVSMCs after seven days (MTT signal, relative to control) ([1]; 5 uM): 95.74
Cell viability of bVSMCs after seven days (MTT signal, relative to control) ([1]; 10 uM): 97.07
Cell viability of bVSMCs after seven days (MTT signal, relative to control) ([1]; 20 uM): 99.71
Cell viability of bVSMCs after seven days (MTT signal, relative to control) ([1]; 50 uM): 80.83*
Cell viability of bVSMCs after seven days (MTT signal, relative to control) ([1]; 100 uM): 53.72*
Toxicity to bVSMCs (MTT assay, in words) ([1]; at 50 and 100 μM): toxic
Cell death in bVSMCs (FIG. 4A and example 2) ([1]; bVSMCs): induce some cell death
Cell viability by MTT, percent of control ([2]; 0.5 uM): 106.63
Cell viability by MTT, percent of control ([2]; 1 uM): 88.38
Cell viability by MTT, percent of control ([2]; 2 uM): 84.08
Cell viability by MTT, percent of control ([2]; 5 uM): 95.65
Cell viability by MTT, percent of control ([2]; 10 uM): 77.14
Cell viability by MTT, percent of control ([2]; 20 uM): 74.86
Cell viability by MTT, percent of control ([2]; 50 uM): 60.33*
Cell viability by MTT, percent of control ([2]; 100 uM): 37.30*
Toxicity to HMMs (in words) ([2]; at a concentration of 100 μM): most toxic
Degree of mineralization judged by eye (Alizarin Red S, FIG. 6) [3]: slightly worse
Calcium levels (mass of calcium, FIG. 7B) compared to no inhibitors ([4]; GAD-treated bVSMCs, 10 μM, 7 d): elevate calcium levels
Normalised calcium levels (mass of calcium per mass of protein, FIG. 9B) ([4]; GAD-treated bVSMCs, 10 μM, 7 d): elevate calcium levels
Effect on calcification (in words, discussion of Example 5) ([4]; bVSMC GAD model): encouraging calcification
Ca^2+ concentration found in bVSMCs, mean ([4]; nine days, no GAD, 0.1 μM): 1.438 μg calcium/ml
Ca^2+ concentration found in bVSMCs, mean ([4]; nine days, no GAD, 1 μM): 1.179 μg calcium/ml
Ca^2+ concentration found in bVSMCs, mean ([4]; nine days, no GAD, 10 μM): 1.061 μg calcium/ml
Ca^2+ concentration found in bVSMCs, mean ([4]; nine days, with GAD, 0.1 μM): 22.69 μg calcium/ml
Ca^2+ concentration found in bVSMCs, mean ([4]; nine days, with GAD, 1 μM): 132.87 μg calcium/ml
Ca^2+ concentration found in bVSMCs, mean ([4]; nine days, with GAD, 10 μM): 66.68 μg calcium/ml
Ca^2+ concentration found in bVSMCs, mean ([4]; seven days, no GAD, 0.1 μM): 0.612 μg calcium/ml
Ca^2+ concentration found in bVSMCs, mean ([4]; seven days, no GAD, 1 μM): 0.565 μg calcium/ml
Ca^2+ concentration found in bVSMCs, mean ([4]; seven days, no GAD, 10 μM): 0.561 μg calcium/ml
Ca^2+ concentration found in bVSMCs, mean ([4]; seven days, with GAD, 0.1 μM): 1.84 μg calcium/ml
Ca^2+ concentration found in bVSMCs, mean ([4]; seven days, with GAD, 1 μM): 4.06 μg calcium/ml
Ca^2+ concentration found in bVSMCs, mean ([4]; seven days, with GAD, 10 μM): 4.93 μg calcium/ml
Cell viability (%) mean ([5]; nine days, no GAD, 0.1 μM): 99.88%
Cell viability (%) mean ([5]; nine days, no GAD, 1 μM): 97.1%
Cell viability (%) mean ([5]; nine days, no GAD, 10 μM): 98.3%
Cell viability (%) mean ([5]; nine days, with GAD, 0.1 μM): 69.43%
Cell viability (%) mean ([5]; nine days, with GAD, 1 μM): 59.06%
Cell viability (%) mean ([5]; nine days, with GAD, 10 μM): 69.43%
Cell viability (%) mean ([5]; seven days, no GAD, 0.1 μM): 93.81%
Cell viability (%) mean ([5]; seven days, no GAD, 1 μM): 97.16%
Cell viability (%) mean ([5]; seven days, no GAD, 10 μM): 99.25%
Cell viability (%) mean ([5]; seven days, with GAD, 0.1 μM): 96.46%
Cell viability (%) mean ([5]; seven days, with GAD, 1 μM): 94.61%
Cell viability (%) mean ([5]; seven days, with GAD, 10 μM): 90.03%
Calcium levels (mass of calcium, FIG. 17) versus DMSO Ca+P positive control [6]: reduce the calcium levels
Normalised calcium levels (mass of calcium per mass of protein, FIG. 19) [6]: lower calcium levels significantly
Inhibition of PARP produced by a mammalian cell [7]: inhibit PARP
